Results on 2 compounds are retold here after patent publication US20170227545A1, “REACTIVITY-BASED SCREENING FOR NATURAL PRODUCT DISCOVERY” (THE BOARD OF TRUSTEES OF THE UNIVERSITY OF ILLINOIS, priority 2014, published 2017).

Holding throughout (type): cell-based
Experiment [1] relates to Bacillus subtilis strain 168. The experiment is described as follows: Antibiotic activity, microbroth dilution MIC.
Experiment [2] concerns Gram-positive (Firmicutes) bacteria. The conditions noted are these: several Gram-positive bacteria, result in words.
The subject of experiment [3] is Listeria monocytogenes strain 4b F2365. Description: Antibiotic activity, microbroth dilution MIC.
For experiment [4], the system named is Neisseria sicca ATCC 29256. Description: Antibiotic activity, microbroth dilution MIC.
For experiment [5], the system named is Enterococcus faecalis U503 (vancomycin-resistant). The experiment is described as follows: Antibiotic activity, microbroth dilution MIC.
For experiment [6], the system named is Staphylococcus aureus USA300 (methicillin-resistant). The experiment is described as follows: Antibiotic activity, microbroth dilution MIC.
The subject of a further experiment is E. coli MC4100. The experiment is described as follows: Antibiotic activity, microbroth dilution MIC. The conditions noted are these: 37° C. 12 h.
Another experiment relates to Fusarium virguliforme. The experiment is described as follows: Antifungal activity, microbroth dilution MIC.
Another experiment concerns Saccharomyces cerevisiae. Description: Antifungal activity, microbroth dilution MIC.
The subject of experiment [7] is Pseudomonas putida KT2440. The experiment is described as follows: Antibiotic activity, microbroth dilution MIC.
Experiment [8] relates to Bacillus anthracis strain Sterne. Description: microbe, parasite or virus in culture.
The test system of experiment [9] is Gram-negative (Proteobacteria) organisms. The settings on record: all tested Gram-negatives, result in words.
The next experiment relates to Aspergillus niger. Description: Antifungal activity, microbroth dilution MIC.
The subject of another experiment is fungal strains. Description: Growth inhibition, panel of fungal strains. The conditions noted are these: result in words.
The subject of a further experiment is Talaromyces stipitatus. Description: Antifungal activity, microbroth dilution MIC.
[10] abbreviates: microbroth dilution, 37° C. 12 h.
Where [11] appears, read: microbroth dilution, 30° C. 36 h.

≈ marks a conversion by molar mass, not a printed value. Where two headings read alike, the source gives them in different places.

Regarding `C=C1NC(=O)CNC(=O)[C@H](CCCCN)NC(=O)[C@@]2(C)NC(=O)/C(=C/C)NC(=O)[C@@H]3CSC(=N3)[C@H](CC(N)=O)NC(=O)c3ccc(nc3[C@@H](C)NC(=O)[C@@H]3CCCN3C1=O)-c1nc(cs1)C1=N[C@@H](CS1)C(=O)NC(=C)c1nc(cs1)-c1nc(cs1)C1=N[C@H](CS1)C(=O)N[C@H](C(=O)O)CS2` [cyclothiazomycin C], the MIC in experiment [1] (168, 37° C. 12 h, read-out: MIC) is 4 µg/mL (≈ 2.69 µM); in [3] (4BF2365, 37° C. 12 h, read-out: MIC), 16 µg/mL (≈ 10.8 µM); in experiment [4] (ATCC29256, 37° C. 12 h, read-out: MIC), over 64 µg/mL; in experiment [5] (12 h), 32 to 64 µg/mL (≈ 21.5 to 43 µM); in experiment [6] (USA300, 12 h) it was 16 µg/mL (≈ 10.8 µM); in the experiment with E. coli MC4100 (MC4100, Escherichia coli, read-out: MIC) it was over 64 µg/mL. The MIC is over 64 µg/mL against Fusarium virguliforme (60 h); over 64 µg/mL against Saccharomyces cerevisiae (36 h); over 64 µg/mL in [7] (KT2440, 37° C. 12 h, read-out: MIC); 1 µg/mL (≈ 0.673 µM) in experiment [8] (12 h); over 64 µg/mL in the experiment with Aspergillus niger (36 h); over 64 µg/mL with Talaromyces stipitatus (36 h). The “growth inhibitory action toward Gram-positive (Firmicutes) bacteria” value in [2] is listed as “exhibited growth inhibitory action”. For the same compound, the “activity against Gram-negative (Proteobacteria) organisms” value in experiment [9] is “inactive”. Further, the “growth inhibitory action toward fungal strains” value with fungal strains was “none was observed”.

Regarding cyclothiazomycin B [reference compound], the MIC in experiment [1] (37° C. 12 h) was 2 µg/mL; in experiment [3] (37° C. 12 h) it was 8 µg/mL; in experiment [4] (37° C. 12 h), over 64 µg/mL; in experiment [5] (setting [10]), 32 µg/mL; in [6] (setting [10]), 4 µg/mL; in the experiment on E. coli MC4100 (Escherichia coli), 64 µg/mL. Besides, the MIC is 64 µg/mL in the experiment with Fusarium virguliforme (microbroth dilution, 30° C. 60 h); 64 µg/mL in the experiment with Saccharomyces cerevisiae (setting [11]); over 64 µg/mL in [7] (37° C. 12 h); 1 µg/mL in [8] (setting [10]); over 64 µg/mL with Aspergillus niger (setting [11]); 64 µg/mL in the experiment with Talaromyces stipitatus (setting [11]). In addition, the “activity against Gram-negative (Proteobacteria) organisms” value in experiment [9] was “little to no activity”. The “growth inhibitory action toward fungal strains” value with fungal strains is recorded as “little to no activity”.
